# Results from publication PMC8465942, “Cyano- and Ketone-Containing Selenoesters as Multi-Target Compounds against Resistant Cancers” (Cancers, 2021).
# Read-outs that look alike come from different tables or passages of the source. Marks after values point to notes of the source that are not given here.
# Columns and labels:
# [1] = system: Colo 205 human colonic adenocarcinoma cell line; experiment: Cytotoxicity (MTT) on sensitive Colo 205 cells; assay type: cell-based; details: for IC50: Homo sapiens, COLO 205, 24 h, MTT, read-out: Colo 205 (IC50 µM) Mean; for SI MRC-5/Colo 205: ratio IC50 non-tumour cells / IC50 cancer cells
# Text: (§1) Three cell lines have been used in this study: the doxorubicin-sensitive Colo 205 (CCL-222, ATCC, Manassas, VA, USA) human colonic adenocarcinoma cell line; the multidrug resistant Colo 320/MDR-LRP expressing P-gp (MDR1)-LRP (CCL-220.1, ATCC) human colonic adenocarcinoma cell line; and the MRC-5 human embryonal lung fibroblast cell line (CCL-171, ATCC). The colon adenocarcinoma cell lines were purchased from LGC Promochem (Teddington, UK), and the MRC-5 cell line was purchased from Sigma-Aldrich (Merck KGaA, Darmstadt, Germany). Their culture conditions are as follows: Colo 205 (CCL-222, ATCC) and Colo 320/MDR-LRP expressing P-gp (MDR1)-LRP (CCL-220.1, ATCC) human colon adenocarcinoma cell lines were cultured in RPMI 1640 medium, supplemented with 10% FBS, 2 mM L-glutamine, 1 mM Na-pyruvate, and […]. The cell lines were incubated at 37 °C, 5% CO2, and 95% air atmosphere. The semi-adherent human colon cancer cells were detached with a Trypsin-Versene (EDTA) solution for 5 min at 37 °C. MRC-5 human embryonal lung fibroblast cells were cultured in EMEM containing 4.5 g/L of glucose and supplemented with a non-essential amino acid mixture, a selection of vitamins, and 10% FBS. The cell lines were incubated at 37 °C, 5% CO2, and 95% air atmosphere.
# (§2) The effects of increasing concentrations of the compounds on cell growth were tested in 96-well flat-bottomed microtiter plates. Moreover, 10^4 of human colonic adenocarcinoma cells in 100 μL of the medium (RPMI-1640) were added to each well, except for the medium control wells. The adherent human embryonic lung fibroblast cell line was seeded in the EMEM medium for 4 h before the assay. The two-fold serial dilutions of the compounds were made in a separate plate (0.19–100 μM), and then transferred to the plates containing the adherent corresponding cell line. Culture plates were incubated at 37 °C for 24 h. At the end of the incubation period, 20 μL of MTT (thiazolyl blue tetrazolium bromide) solution (from a 5 mg/mL stock solution) were added to each well. After incubation at 37 °C for 4 h, 100 μL of sodium dodecyl sulfate (SDS) solution (10% SDS in 0.01 M HCl) was added to each well, and the plates were further incubated at 37 °C overnight. Cell growth was determined by measuring the optical density (OD) at 540 nm (ref. 630 nm) with a Multiscan EX ELISA reader (Thermo Labsystems, Cheshire, WA, USA). Inhibition of cell growth was expressed as IC50 values, defined as the inhibitory dose that reduces the growth of the cells exposed to the tested compounds by 50%. IC50 values and the SD of triplicate experiments were calculated by using GraphPad Prism software version 5.00 for Windows, with a non-linear regression curve fit (GraphPad Software, San Diego, CA, USA; www.graphpad.com, accessed on 12 July 2021). Doxorubicin (from a 2 mg/mL stock solution, Teva Pharmaceuticals) was used as a positive control.
# (§3) The selectivity indexes (SI) were calculated as the ratio of the IC50 value in the non-tumour cells and the IC50 in the cancer cell lines. The compound’s activity towards cancer cells is considered as strongly selective if the selectivity index (SI) value is higher than 6, moderately selective if 3 < SI < 6, slightly selective if 1 < SI < 3, and non-selective if SI is lower than 1 [16].
# [2] = system: Colo 320/MDR-LRP human colonic adenocarcinoma cell line; experiment: Cytotoxicity (MTT) on resistant Colo 320 cells; assay type: cell-based; details: for IC50: Homo sapiens, COLO 320, 24 h, MTT, read-out: Colo 320 (IC50 µM) Mean; for SI MRC-5/Colo 320: ratio IC50 non-tumour cells / IC50 cancer cells
# Text: as §1, §2, §3
# [3] = Cytotoxicity (MTT) on normal MRC-5 fibroblasts; assay type: cell-based; details: human
# Text: as §1, §2
# [4] = system: MDR Colo 320 adenocarcinoma cells; experiment: Apoptosis induction (Annexin V-FITC / propidium iodide); assay type: cell-based, human; details: 20 µM
# Procedure: The assay was carried out using an Annexin V-FITC Apoptosis Detection Kit Cat. No. PF 032 from Calbiochem (EMD Biosciences. Inc. La Jolla. CA), according to the manufacturer's instructions. […] The cell suspension was distributed into 1 mL aliquots (1 × 10^6 cells) into a 24-well microplate and incubated overnight at 37 °C, with 5% CO2. On the following day, the medium was removed and a fresh medium was added to the cells. The cells were incubated in the presence of Se-compounds for 3 h at 37 °C. […] After a 3 h induction period, the culture medium was removed, the cells were washed with PBS, and a fresh medium was added to the cells. The 24-well plates were incubated overnight at 37 °C, with 5% CO2. After the incubation, the supernatant was collected in a microfuge tube and 200 μL of 0.25 trypsin (Trypsin-Versene) was added to the wells until the cells detached from the surfaces of the wells. The cells were centrifuged at 2000× g for 2 min at room temperature, the supernatant was removed, and the cells were re-suspended in fresh serum-free medium. After this procedure, apoptosis assay was carried out according to the rapid protocol of the kit using Annexin V-FITC and propidium iodide staining. […] The data were analysed by FlowJo^TM software (BD Biosciences, San Jose, NJ, USA).
# [5] = system: HepG2 (hepatocellular carcinoma); experiment: Cytotoxicity on HepG2 cells; assay type: cell-based; details: Homo sapiens
# Procedure: (§4) The activity of selenoesters was tested on several cancer cell lines, including HepG2 (hepatocellular carcinoma, CCL-23TM, ATCC); HeLa (cervical adenocarcinoma, CCL-2TM, ATCC); B16 (skin melanoma, CCL-6322TM, ATCC); and a non-cancerous cell line, HDF (human dermal fibroblasts, Sigma-Aldrich). HepG2, HeLa, B16, and HDF cell lines were cultivated in EMEM medium supplemented with 10% FBS, 2 mM L-glutamine, and 1% penicillin-streptomycin mixture. The HaCaT cell line was cultivated in DMEM medium supplemented with 10% FBS and 1% penicillin-streptomycin mixture. All of the cells were cultivated in a CO2 incubator (5% CO2, 37 °C). Twice per week, the cell lines were passaged according to a standardized protocol with a trypsin-EDTA solution.
# as §3
# [6] = system: HeLa (cervical adenocarcinoma); experiment: Cytotoxicity on HeLa cells; assay type: cell-based; details: Homo sapiens
# Procedure: as §4, §3
# [7] = system: B16 (skin melanoma); experiment: Cytotoxicity on B16 cells; assay type: cell-based, murine; details: Mus musculus
# Procedure: as §4, §3
# [8] = system: resistant Colo 320 colon adenocarcinoma cells expressing the ABCB1 transporter; experiment: Checkerboard combination assay with doxorubicin; assay type: cell-based, human; details: starting conc. 10 µM
# Procedure: A checkerboard microplate method was applied to study the effect of drug interactions between the selenocompounds and the chemotherapeutic drug doxorubicin on resistant Colo 320 colon adenocarcinoma cells expressing the ABCB1 transporter. Results were expressed in terms of the combination index (CI) values at 50% growth inhibition (ED50), which were determined by using CompuSyn software to plot 4 or 5 data points for each ratio.
# To perform the experiment, the dilutions of doxorubicin were made in a horizontal direction in 100 µL, and the dilutions of the Se-compounds were made vertically in the microtiter plate in a volume of 50 µL. The cells were re-suspended in the culture medium and distributed into each well in 50 µL portions containing 6000 cells. The plates were incubated for 72 h at 37 °C in a CO2 incubator. The cell growth rate was determined after MTT staining. At the end of the incubation period, 20 μL of MTT solution was added to each well. After incubation at 37 °C for 4 h, 100 μL of SDS was added to each well and the plates were further incubated at 37 °C overnight. The optical density (OD) was measured at 540/630 nm with the Multiscan EX ELISA reader.
# [9] = system: HaCaT cell line; experiment: Toxicity on HaCaT cells (IC10 used as dose); assay type: cell-based; details: Homo sapiens, concentration inhibiting 10% of the population, highest non-toxic concentration, read-out: Dose IC10
# Procedure: as §4, with “solution. […]” for “solution.”
# Wound healing activity of selenoesters was evaluated as the ability of the cells to migrate and close the gap created on the monolayer of human keratinocytes (HaCaT cell line). The tested substances were applied in the highest possible non-toxic concentration (IC10, concentration inhibiting 10% of the population). In general, ketone-selenoesters were more toxic (except K4 and K1) than cyano-selenoesters (except N4); therefore, they were applied at lower doses (0.17–0.30 µM) when compared to cyanoselenoesters (0.36–0.64 µM). Compounds K1, K4, and N4 were applied at a concentration of 0.30, 0.46, and 0.20 µM, respectively. As could be seen in Table 8, all ketone-selenoesters stimulated wound healing more effectively in comparison to both untreated control (p < 0.0000005) and allantoin (p < 0.00005). […] Only samples N1, N2, N4, and N7 closed effectively the damaged wound in 24 h, with the gap closure around 70%.
# [10] = system: HepG2 (hepatocellular carcinoma); experiment: Cytotoxicity on HepG2 cells; assay type: cell-based, human; details: ratio IC50 non-tumour cells / IC50 cancer cells
# [11] = system: HeLa (cervical adenocarcinoma); experiment: Cytotoxicity on HeLa cells; assay type: cell-based, human; details: ratio IC50 non-tumour cells / IC50 cancer cells
# [12] = biological target: ABCB1 (P-glycoprotein) in Colo 320 colonic adenocarcinoma cells (Homo sapiens, UniProt P08183); experiment: ABCB1 inhibition, rhodamine 123 accumulation by flow cytometry; details: 0.2 µM
# Chain of ABCB1 (P-glycoprotein) in Colo 320 colonic adenocarcinoma cells (P08183 whole entry): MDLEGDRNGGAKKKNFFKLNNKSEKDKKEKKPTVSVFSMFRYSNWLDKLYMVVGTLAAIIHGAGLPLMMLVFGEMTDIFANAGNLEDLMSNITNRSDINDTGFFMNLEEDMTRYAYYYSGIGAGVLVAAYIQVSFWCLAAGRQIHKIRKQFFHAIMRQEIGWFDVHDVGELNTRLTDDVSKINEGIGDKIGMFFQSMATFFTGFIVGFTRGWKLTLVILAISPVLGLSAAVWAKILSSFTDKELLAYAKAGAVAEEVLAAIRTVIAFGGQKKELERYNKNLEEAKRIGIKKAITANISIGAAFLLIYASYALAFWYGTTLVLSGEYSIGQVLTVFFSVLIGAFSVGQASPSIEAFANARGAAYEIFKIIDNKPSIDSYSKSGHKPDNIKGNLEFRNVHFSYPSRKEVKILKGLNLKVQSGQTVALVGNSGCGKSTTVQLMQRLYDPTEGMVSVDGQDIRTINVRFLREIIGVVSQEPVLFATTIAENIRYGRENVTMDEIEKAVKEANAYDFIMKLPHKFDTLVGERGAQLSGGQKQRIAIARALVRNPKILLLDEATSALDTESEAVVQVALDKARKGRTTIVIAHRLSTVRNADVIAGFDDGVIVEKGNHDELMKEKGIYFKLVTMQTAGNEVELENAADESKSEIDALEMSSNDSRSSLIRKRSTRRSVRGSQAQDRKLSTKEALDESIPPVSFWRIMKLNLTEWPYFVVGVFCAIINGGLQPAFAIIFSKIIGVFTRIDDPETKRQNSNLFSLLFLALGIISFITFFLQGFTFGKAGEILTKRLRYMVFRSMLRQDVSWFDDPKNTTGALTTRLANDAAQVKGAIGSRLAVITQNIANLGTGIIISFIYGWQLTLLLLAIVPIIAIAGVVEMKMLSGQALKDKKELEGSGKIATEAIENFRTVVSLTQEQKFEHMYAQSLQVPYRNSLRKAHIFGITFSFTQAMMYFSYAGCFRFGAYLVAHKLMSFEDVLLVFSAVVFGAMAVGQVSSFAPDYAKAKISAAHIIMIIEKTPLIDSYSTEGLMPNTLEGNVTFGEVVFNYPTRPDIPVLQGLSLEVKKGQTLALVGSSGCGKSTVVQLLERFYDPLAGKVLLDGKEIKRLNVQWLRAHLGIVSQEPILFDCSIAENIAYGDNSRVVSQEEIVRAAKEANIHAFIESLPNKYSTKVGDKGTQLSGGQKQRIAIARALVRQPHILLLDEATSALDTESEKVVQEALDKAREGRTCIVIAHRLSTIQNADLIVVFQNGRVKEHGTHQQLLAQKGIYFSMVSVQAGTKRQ
# Procedure: The inhibition of the ABCB1 multidrug efflux pump ABCB1 by the tested compounds was evaluated using flow cytometry, measuring the retention of rhodamine 123 by ABCB1 (P-glycoprotein) in Colo 320 colonic adenocarcinoma cells. Briefly, the cell number of colonic adenocarcinoma cells were adjusted to 2 × 10^6 cells/mL, re-suspended in serum-free RPMI-1640 medium in the case of colonic adenocarcinoma cells, and distributed in 0.5 mL aliquots into Eppendorf centrifuge tubes. The tested compounds were added at different concentrations (0.2 and 2 µM; from 1 and 10 mM stock solutions, respectively), and the samples were incubated for 10 min at room temperature. Tariquidar was applied as the positive control (0.2 µM final concentration), and DMSO was used as the solvent control (at 2 v/v%). Next, 10 µL (5.2 µM final concentration) of the fluorochrome rhodamine 123 (Sigma, St. Louis, MO, USA) was added to the samples and the cells were incubated for 20 min at 37 °C. After the incubation period, the cells were washed twice and re-suspended in 0.5 mL PBS for analysis. The fluorescence of the gated cell population was measured with a Partec CyFlow® flow cytometer (Partec, Münster, Germany). The percentage of the mean fluorescence intensity was calculated for the treated MDR cells as compared with the untreated cells. The results were obtained from a representative flow cytometry experiment in which at least 20,000 individual cells of the overall population were evaluated for the rhodamine 123 retained inside the cells. The fluorescence activity ratio (FAR) was calculated based on the following equation, which relates the measured fluorescence values: FAR=Colo320treated / Colo320control/Colo205treated / Colo205control
# The parameters evaluated from flow cytometry experiments were: Forward Scatter Count (FSC, provides information about cell size); Side Scatter Count (SSC, proportional to cell granularity or internal complexity); FL-1 (Mean fluorescence of the cells), and Fluorescence Activity Ratio (FAR), which was calculated by the equation given above.
structure (smiles),measurement,setting,value
"COc1cccc2c1C(=O)c1c(O)c3c(c(O)c1C2=O)C[C@@](O)(C(=O)CO)C[C@@H]3O[C@H]1C[C@H](N)[C@H](O)[C@H](C)O1 [Dox., doxorubicin, reference compound]",IC50,[1],3.46 µM
same,SI MRC-5/Colo 205,[1],0.79
same,IC50,[2],7.61 µM
same,SI MRC-5/Colo 320,[2],0.36
same,IC50 at 24 h,"[3]; MRC-5 embryonal lung fibroblast cells, 24 h, MTT, read-out: MRC-5 (IC50 µM) Mean",2.73 µM
"c1ccc2c(c1)Nc1c(ccc3ccccc13)S2 [M627, 12H-benzo(α)phenothiazine, reference compound]",Cell Death (%) Treated Sample-Untreated Sample,[4]; positive control,0.00%
same,Early Apoptosis (%) Treated Sample-Untreated Sample,[4]; positive control,13.3%
same,Late Apoptosis (%) Treated Sample-Untreated Sample,[4]; positive control,36.1%
same,"Total Apoptotic Events (Early + Late, %)",[4]; positive control,49.4%
same,Apoptosis Quotient (%),[4]; reference,100%
"N#CC[Se]C(=O)c1cccc(C(F)(F)F)c1 [N5, Se-(Cyanomethyl) 3-(Trifluoromethyl)benzoselenoate]",IC50,[1],2.1 µM
same,SI MRC-5/Colo 205,[1],>6 *
same,IC50,[2],5.22 µM
same,SI MRC-5/Colo 320,[2],>6 *
same,IC50 at 24 h,[3],> 100 µM
same,IC50,[5],9.8 µM
same,IC50,[6],2.5 µM
same,IC50,[7],1.4 µM
same,Type of Interaction,[8]; ratio 1.2:1,Strong antagonism
same,Type of Interaction,[8]; ratio 2.4:1,Strong antagonism
same,Type of Interaction,[8]; ratio 4.8:1,Slight antagonism
same,Type of Interaction,[8]; ratio 9.6:1,Additive effect
same,Type of Interaction,[8]; ratio 19.2:1,Slight antagonism
same,Type of Interaction,[8]; ratio 38.4:1,Moderate antagonism
same,IC10,[9],600 nM
same,SI MRC-5/HepG2,[10],>6 *
same,SI MRC-5/HeLa,[11],>6 *
"COc1cc2c(cc1OC)CN(CCc1ccc(NC(=O)c3cc(OC)c(OC)cc3NC(=O)c3cnc4ccccc4c3)cc1)CC2 [Tariquidar, reference compound]",FSC (Forward Scatter Count),[12],1957
same,SSC (Side Scatter Count),[12],1074
same,FAR (fluorescence activity ratio),"[12]; rhodamine 123, FAR above 2 considered effective",28.04
